8 molecules from PubChem BioAssay (NCI) can be followed below.

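Compound exposure: 48 hours, 5 concentrations, 96-well plates. GI50 is the concentration that inhibits growth by half. TGI: total growth inhibition.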 A value given as a limit tells only on which side of the number the result lay.

Common to all, as to test: NCI anticancer screen, dose series, 48 h
In assay [1] the test system is OVCAR-5 ovarian.
The test system of assay [2] is KM12 colon.
For assay [3], the system named is CCRF-CEM leukemia.
The subject of assay [4] is SF-295 CNS.
Assay [5] has as its system SNB-19 CNS.
Assay [6] deals with DU-145 prostate.
Assay [7] has as its system MDA-MB-435.
Assay [8] deals with SN12C renal.
Assay [9] relates to U251 CNS.
In assay [10] the test system is PC-3 prostate.

For `Cc1ccc(Nc2[nH]c(C(=O)c3ccc(Cl)cc3)c(N)c2C(=S)Nc2ccccc2)nc1`, the GI50 was 33.1 µM in [1]; 16.8 µM in assay [2]; 38.1 µM in [3]; 21.5 µM in assay [4]; 39.4 µM in assay [5]; 31.2 µM in [6]. Further, the GI50 in [7] is 23 µM; in assay [8] it was 18.5 µM; in assay [9], 26.8 µM; in assay [10] it was 26.5 µM. Moreover, the TGI is more than 100 µM in assay [1]; 54.9 µM in assay [2]; more than 100 µM in assay [3]; 67.3 µM in assay [4]; more than 100 µM in assay [5]; more than 100 µM in assay [6]. The TGI in assay [7] was 96.3 µM; in assay [8], 37.9 µM; in assay [9] it was more than 100 µM; in assay [10], more than 100 µM.

`C[C@@H]1[C@H]2[C@H](C=C3[C@@H]4CC[C@H]5Cc6nc7c(nc6C[C@]5(C)[C@H]4C[C@@H](O)[C@@]32C)C[C@@H]2CC[C@H]3C4=C[C@@H]5O[C@@]6(CC[C@](C)(CO)O6)[C@@H](C)[C@@]5(O)[C@@]4(C)[C@H](O)C[C@@H]3[C@@]2(C)C7)O[C@]12CCC(C)(C)O2`: the GI50 in assay [1] was 1.22 µM; in assay [2], 0.73 µM; in assay [3], 0.317 µM; in assay [4], 0.0698 µM; in assay [5], 0.653 µM; in assay [6], 2.87 µM. Also, the GI50 in assay [7] was 2.8 µM; in assay [8] it was 11.6 µM; in assay [9] it was 0.2 µM; in assay [10] it was 0.391 µM. Moreover, the TGI in assay [1] was found to be 19.6 µM; in assay [2] it was 16.2 µM; in [4], 0.259 µM; in assay [5], 7.28 µM; in assay [6], 37.2 µM; in assay [7] it was 24.3 µM. For the same molecule, the figures for the TGI in [8], in assay [9] and in assay [10] were more than 70.3 µM, 7.06 µM and 6.76 µM, respectively.

Turning to `O=c1c2[nH]c3ccccc3c2nc2n1CCS2`, the GI50 is more than 100 µM in assay [1]; 67 µM in [2]; 0.598 µM in [3]; more than 100 µM in assay [4]; more than 100 µM in assay [5]; more than 100 µM in assay [6]. The GI50 in assay [7] was more than 100 µM; in [8], more than 100 µM; in assay [9] it was more than 100 µM; in assay [10], 47.8 µM. Also, the TGI in assay [1], in assay [2], in assay [3], in assay [4], in [5] and in assay [6] was more than 100 µM each time. Besides, the TGI in assay [7], in assay [8], in assay [9] and in assay [10] was more than 100 µM each time.

In the case of `CN(C)CCN1C(=O)c2cccc3c(N)ccc(c23)C1=O`, the GI50 in assay [1] was 15.1 µM; in [2], 14.2 µM; in assay [3], 9.63 µM; in assay [4] it was 10 µM; in assay [5], 14.3 µM; in assay [6], 13.6 µM. The GI50 is 11.1 µM in assay [7], 10 µM in [8], 10.7 µM in assay [9] and 13.5 µM in assay [10]. The TGI in [1], in [2], in assay [3], in [4], in assay [5] and in assay [6] was more than 25 µM throughout. Also, the TGI in assay [7], in [8], in assay [9] and in assay [10] was more than 25 µM in each case.

With `Cc1coc2c1CC1OC1(C)CCC1OC1(C)C2` (centres undefined), the TGI in assay [1], in assay [2], in assay [3], in [4], in assay [5] and in assay [6] was more than 100 µM each time. Moreover, the TGI in assay [7], in assay [8], in [9] and in assay [10] was more than 100 µM in each case.

Regarding `Cc1c2cnccc2c(C)c2c1c1cc(C(=O)O)ccc1n2C`, the GI50 is 1.91 µM in [1]; 1.04 µM in assay [2]; 1.06 µM in assay [3]; 1.16 µM in [4]; 0.738 µM in [5]; 1.14 µM in [6]. In addition, the GI50 is 1.33 µM in assay [7], 0.772 µM in [8], 0.918 µM in [9] and 1.68 µM in assay [10]. Further, the TGI came out at 9.52 µM in [1]; 6.92 µM in [2]; 6.6 µM in assay [3]; 6.65 µM in assay [4]; 10.3 µM in assay [5]; 5.96 µM in [6]. Also, the TGI amounted to 3.4 µM in assay [7], 10.2 µM in [8], 7.95 µM in assay [9] and 8.09 µM in [10].

Turning to `O=C(CCc1ccco1)NC1CCN(CC2(c3ccc(Cl)cc3)CCC2)CC1`, the GI50 in assay [1] is 15.1 µM; in assay [2] it was 15.3 µM; in assay [3], 13.7 µM; in assay [4], 15.5 µM; in assay [5], 15.1 µM; in [6], 19.1 µM. In addition, the GI50 in assay [7] is 11.8 µM; in assay [8] it was 15.4 µM; in [9], 13.1 µM; in [10] it was 14.1 µM. For the same molecule, the TGI in [1] was found to be 29.1 µM; in assay [2], 31.5 µM; in assay [3] it was 49.9 µM; in assay [4], 30.1 µM; in assay [5], 30.7 µM; in assay [6] it was 41.3 µM. Moreover, the TGI in assay [7] worked out at 24.1 µM; in assay [8] it was 33.1 µM; in assay [9] it was 26.4 µM; in assay [10], 31.1 µM.

As to `CC(N)(Cc1c[nH]c2ccccc12)C(=O)O` (centres undefined), the GI50 in assay [1], in assay [2], in assay [3], in assay [4], in assay [5] and in assay [6] was more than 2500 µM in each case. The GI50 in assay [7], in [8], in assay [9] and in assay [10] was more than 2500 µM in each case. Also, the TGI in assay [1], in [2], in assay [3], in assay [4], in assay [5] and in [6] was more than 2500 µM each time. Besides, the TGI in [7], in assay [8], in assay [9] and in assay [10] was more than 2500 µM in each case.
